# Results from BindingDB's records for doi:10.1002/1098-2396(20001215)38:4 (University of North Texas, 2000).
# Biological target: D(2) dopamine receptor (Rattus norvegicus, UniProt P61169)
# Sequence (P61169 whole entry): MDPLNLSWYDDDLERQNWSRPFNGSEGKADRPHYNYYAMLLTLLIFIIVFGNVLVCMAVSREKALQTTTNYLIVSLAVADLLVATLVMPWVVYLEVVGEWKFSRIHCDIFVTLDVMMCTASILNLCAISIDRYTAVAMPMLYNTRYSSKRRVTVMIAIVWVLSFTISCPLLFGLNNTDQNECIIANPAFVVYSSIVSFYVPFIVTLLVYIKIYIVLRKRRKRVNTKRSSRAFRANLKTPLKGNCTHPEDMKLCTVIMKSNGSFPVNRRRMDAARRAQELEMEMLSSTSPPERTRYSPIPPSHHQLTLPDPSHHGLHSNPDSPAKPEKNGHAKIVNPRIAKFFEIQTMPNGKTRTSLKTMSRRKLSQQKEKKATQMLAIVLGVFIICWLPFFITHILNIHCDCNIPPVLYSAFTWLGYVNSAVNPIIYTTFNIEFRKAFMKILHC
row,SMILES,Ki [µM]
1,CC(C)NCC(O)COc1cccc2[nH]ccc12 (stereo not drawn) [LB-46],> 10
2,"O=C(c1ccc(F)cc1)C1CCN(CCn2c(=O)[nH]c3ccccc3c2=O)CC1 [3-(2-{4-[(4-fluorophenyl)carbonyl]piperidin-1-yl}ethyl)-1,2,3,4-tetrahydroquinazoline-2,4-dione]",2.71
3,Cc1ccc(N(CC2=NCCN2)c2cccc(O)c2)cc1 [SMR000059054],1.77
